From PMC6274474, “Synthesis and Cytotoxic Activity on Human Cancer Cells of Novel Isoquinolinequinone–Amino Acid Derivatives” (Molecules, 2016)
Read-outs that look alike come from different tables or passages of the source.

What was measured:
[1] = system: MRC-5 normal human lung fibroblasts; assay: MTT cytotoxicity assay, 72 h, normal human lung fibroblasts; assay type: cell-based; conditions: for IC50: MRC5, normal human lung fibroblasts, MTT, 72 h exposure, six determinations, read-out: IC50 ± SEM MRC-5
Method: (§1) The series of isoquinolinequinone amino ester conjugates (Table 1) and the bromine derivatives (Table 2) were evaluated for their in vitro cytotoxic activities against normal human lung fibroblast (MRC-5) and three human cancer cells lines: human gastric adenocarcinoma (AGS), human lung cancer (SK-MES-1), and human bladder carcinoma (J82), in 72 h drug exposure assays. The cytotoxic activities of the new compounds were measured using conventional microculture tetrazolium reduction assays. The cytotoxic activities of each of the quinones are expressed in terms of IC50.
(§2) Cytotoxicity assay (Table 3 and Table 4). […] MRC-5, SK-MES-1, and J82 cells were grown in Eagle’s minimal essential medium (EMEM) containing 2 mM L-glutamine, 1 mM sodium pyruvate and 1.5 g/L sodium hydrogen carbonate. AGS cells were grown in Ham F-12 supplemented with 2 mM L-glutamine and 1.5 g/L sodium hydrogen carbonate. Finally, HL-60 cells were grown in RPMI medium. […] For the cytotoxicity experiments, cells were seeded into 96-well plates at a density of 50,000 cells/mL. After reaching confluence, cells were incubated for three days with compounds at varied concentrations ranging from 0 up to 100 μM while untreated cells (medium containing 1% DMSO) were used as controls. Cytotoxicity was assessed using the MTT (3-(4,5-dimethylthiazol-2-yl)-2,5-diphenyltetrazolium bromide) reduction assay. MTT was used at 1 mg/mL and the blue formazan crystals, formed during MTT reduction, were dissolved adding 100 μL of ethanol (acidified with HCl). The absorbance was measured at 550 nm using a Universal Microplate Reader (ELX 800, Bio-Tek Instruments Inc., Winooski, VT, USA). Values were the means of six replicates for each concentration and transformed to percentage of controls. The IC50 value was graphically obtained from the dose–response curves by adjusting them to a sigmoidal model (a + (b − a)/1 + 10(x − c)), where c = log IC50.

[2] = system: AGS human gastric adenocarcinoma cells; assay: MTT cytotoxicity assay, 72 h, gastric adenocarcinoma cells; assay type: cell-based; conditions: 72 h exposure, six determinations, read-out: IC50 ± SEM AGS
Method: as §1, §2

[3] = system: SK-MES-1 human lung cancer cells; assay: MTT cytotoxicity assay, 72 h, lung cancer cells; assay type: cell-based; conditions: 72 h exposure, six determinations, read-out: IC50 ± SEM SK-MES-1
Method: as §1, §2

[4] = system: J82 human bladder carcinoma cells; assay: MTT cytotoxicity assay, 72 h, bladder carcinoma cells; assay type: cell-based; conditions: 72 h exposure, six determinations, read-out: IC50 ± SEM J82
Method: as §1, §2

[5] = system: AGS, SK-MES-1 and J82 human cancer cell lines; assay: MTT cytotoxicity, 72 h, panel summary (mean/range/selective index) over AGS, SK-MES-1, J82 vs MRC-5; assay type: cell-based; conditions: for MSI: Mean Selective Index = IC50 values for fibroblasts/IC50 values tumor cells: MRC-5 vs AGS; for MSI: Mean Selective Index = IC50 values for fibroblasts/IC50 values tumor cells / IC50: SK-MES-1, J82; for IC50: Homo sapiens
Method: as §1, §2

[6] = system: AG 1523 normal human fibroblasts; assay: MTT cytotoxicity assay, 48 h, normal human fibroblasts; assay type: cell-based; conditions: AG1523, healthy non-tumor fibroblasts, three experiments, read-out: IC50 ± SEM AG 1523
Method: (§3) Cytotoxicity assay (Table 5). […] The cytotoxic effect of compounds on cell lines was assessed using the MTT assay as reported previously. Briefly, 10,000 cells/well were plated for 24 h in 96-well plates and, after reaching confluence, the cells were incubated for 48 h with DMSO or in the presence of compounds. Cells were washed twice with warm phosphate-buffered saline (PBS) and further incubated for 2 h with MTT (0.5 mg/mL). The blue formazan crystals were then solubilized by adding 100 μL DMSO/well and optical density of colored solutions was read at 550 nm. Results are expressed as % of MTT reduction compared to untreated control conditions. The calculation of IC50 values was performed by using GraphPad Prism software (San Diego, CA, USA).

[7] = system: T24 (bladder) human cancer cells; assay: MTT cytotoxicity assay, 48 h, bladder cancer cells; assay type: cell-based; conditions: three experiments, read-out: IC50 ± SEM T24
Method: as §3

[8] = system: DU-145 (prostate) human cancer cells; assay: MTT cytotoxicity assay, 48 h, prostate cancer cells; assay type: cell-based; conditions: three experiments, read-out: IC50 ± SEM DU-145
Method: as §3

[9] = system: MCF-7 (breast) human cancer cells; assay: MTT cytotoxicity assay, 48 h, breast cancer cells; assay type: cell-based; conditions: MCF7, three experiments, read-out: IC50 ± SEM MCF-7
Method: as §3

[10] = system: T24, DU-145 and MCF-7 human cancer cell lines; assay: MTT cytotoxicity, 48 h, panel summary (range/selective index) over T24, DU-145, MCF-7 vs AG 1523; assay type: cell-based
Method: as §3

[11] = SK-MES-1, mean over AGS, read-out: mean IC50 on cancer cells
[12] = SK-MES-1, 72 h, range over AGS, 72 h MTT, read-out: IC50 values range over the cancer cell lines

melting point [°C]	SMILES	IC50 [1] [nM]	IC50 [2] [nM]	IC50 [3] [nM]	IC50 [4] [nM]	MSI: Mean Selective Index = IC50 values for fibroblasts/IC50 values tumor cells [5]	IC50 [5, 11] [nM]	IC50 [5, 12] [nM]	SI (normal fibroblasts) ([1]; as printed for normal fibroblasts)	IC50 [6] [nM]	IC50 [7] [nM]	IC50 [8] [nM]	IC50 [9] [nM]	MSI on lung and bladder cancer cells ([5]; MRC-5 vs SK-MES-1 and J82 only)	SI ([10]; AG 1523 fibroblasts vs T24, DU-145, MCF-7)	IC50 ([10]; Homo sapiens, range over T24, DU-145, MCF-7, 48 h MTT, read-out: IC50 range in cancer cells) [nM]
–	COC(=O)c1c(C)ncc2c1C(=O)C=C(N[C@H](C(=O)OC)C(C)C)C2=O [Compound 3a, Methyl 6- and 7-(1-methoxy-3-methyl-1-oxobutan-2-ylamino)-3-methyl-5,8-dioxo-5,8-dihydro-isoquinoline-4-carboxylate]	4940 ± 250	1940 ± 80	4620 ± 280	7490 ± 440	1.10	–	–	–	–	–	–	–	–	–	–
–	COC(=O)c1c(C)ncc2c1C(=O)C=C(N[C@@H](C)C(=O)OC)C2=O [Compound 2a, Methyl 6- and 7-(1-methoxy-1-oxopropan-2-ylamino)-3-methyl-5,8-dioxo-5,8-dihydroisoquinoline-4-carboxylate]	9040 ± 690	2250 ± 150	2650 ± 190	6250 ± 440	–	< 4000	–	–	–	–	–	–	–	–	–
–	COC(=O)c1c(C)ncc2c1C(=O)C=C(N[C@@H](CCSC)C(=O)OC)C2=O [Compound 5a]	5220 ± 310	2540 ± 210	2930 ± 110	6000 ± 320	1.42	–	–	–	–	–	–	–	–	–	–
–	COC(=O)c1c(C)ncc2c1C(=O)C=C(N[C@@H](Cc1c[nH]c3ccccc13)C(=O)OC)C2=O [Compound 8a, Methyl 6- and 7-(3-(1H-indol-3-yl)-1-methoxy-1-oxopropan-2-ylamino)-3-methyl-5,8-dioxo-5,8-dihydroisoquinoline-4-carboxylate]	6620 ± 460	2540 ± 180	3630 ± 180	7560 ± 520	1.45	–	–	–	–	–	–	–	–	–	–
–	COC(=O)c1c(C)ncc2c1C(=O)C=C(N[C@@H](CC(C)C)C(=O)OC)C2=O [Compound 4a]	5700 ± 290	2970 ± 150	4560 ± 310	7650 ± 510	1.13	–	–	–	–	–	–	–	–	–	–
125.2 to 127.5	COC(=O)c1c(C)ncc2c1C(=O)C(Br)=C(NC(Cc1ccccc1)C(=O)OC)C2=O (stereo not drawn) [Compound 15]	4480 ± 270	2080 ± 130	2130 ± 120	4610 ± 360	1.52	–	–	–	–	–	–	–	–	–	–
71.5 to 73	COC(=O)c1c(C)ncc2c1C(=O)C(N[C@H](Cc1ccccc1)C(=O)OC)=CC2=O [Compound 10b, Methyl 6- and 7-(1-methoxy-1-oxo-3-phenylpropan-2-ylamino)-3-methyl-5,8-dioxo-5,8-dihydroisoquinoline-4-carboxylate]	1780 ± 120	1980 ± 110	1200 ± 50	3030 ± 170	0.82	–	580 to 3180	–	–	–	–	–	–	–	–
76.5 to 78.5	COC(=O)c1c(C)ncc2c1C(=O)C(N[C@@H](Cc1ccc(O)cc1)C(=O)OC)=CC2=O [Compound 7b]	3740 ± 260	1530 ± 60	2570 ± 120	7110 ± 550	1.00	–	–	–	–	–	–	–	–	–	–
105.2 to 107	COC(=O)c1c(C)ncc2c1C(=O)C(Br)=C(NC(C(=O)OC)C(C)C)C2=O (stereo not drawn) [Compound 13a]	2980 ± 210	1920 ± 130	2280 ± 90	4010 ± 190	1.15	–	–	–	–	–	–	–	–	–	–
104.3 to 106.2	COC(=O)c1c(C)ncc2c1C(=O)C(Br)=C(NC(CC(C)C)C(=O)OC)C2=O (stereo not drawn) [Compound 14]	> 100000	> 100000	920 ± 40	2210 ± 170	–	–	–	> 100	1570 ± 200	670 ± 60	640 ± 60	500 ± 50	> 45	2.62	500 to 670
–	COC(=O)c1c(C)ncc2c1C(=O)C=C(N[C@@H](Cc1ccccc1)C(=O)OC)C2=O [Compound 6a, Methyl 6- and 7-(1-methoxy-1-oxo-3-phenylpropan-2-ylamino)-3-methyl-5,8-dioxo-5,8-dihydroisoquinoline-4-carboxylate]	6730 ± 340	1850 ± 130	2500 ± 150	4680 ± 230	–	< 4000	–	–	–	–	–	–	–	–	–
105 to 106.6	COC(=O)c1c(C)ncc2c1C(=O)C(NC(C(=O)OC)C(C)C)=C(Br)C2=O (stereo not drawn) [Compound 13b]	2110 ± 110	2700 ± 140	3900 ± 310	8760 ± 610	0.41	–	–	–	–	–	–	–	–	–	–
58.5 to 60.5	COC(=O)c1c(C)ncc2c1C(=O)C(N[C@@H](CC(C)C)C(=O)OC)=CC2=O [Compound 4b, Methyl 6- and 7-(1-methoxy-4-methyl-1-oxopentan-2-ylamino)-3-methyl-5,8-dioxo-5,8-dihydroisoquinoline-4-carboxylate]	1770 ± 140	1590 ± 70	2220 ± 120	2350 ± 90	0.86	–	580 to 3180	–	–	–	–	–	–	–	–
120.5 to 122	COC(=O)c1c(C)ncc2c1C(=O)C(Br)=C(NC(C)C(=O)OC)C2=O (stereo not drawn) [Compound 12, Methyl 6-bromo-7-(1-methoxy-1-oxopropan-2-ylamino)-3-methyl-5,8-dioxo-5,8-dihydroisoquinoline-4-carboxylate]	2860 ± 170	2070 ± 110	1960 ± 110	3760 ± 260	1.10	–	–	–	–	–	–	–	–	–	–
